# pEC50: −log10 of the molar value.
# Target: T1, human TREM2 (Homo sapiens, UniProt Q9NZC2)
# T1 construct: expressed in transfected cells; host or cells: HEK293T-hTREM2 cells (HEK cell line expressing human TREM2 and DAP12)
# Experiment: TREM2 agonist potency by cellular phosphorylation of Syk (AlphaLisa) in HEK293T-hTREM2 cells expressing human TREM2 and DAP12
# Assay type: cell-based
# Conditions: HEK293 cells expressing hTREM2 and DAP12; 45 minutes at room temperature; Syk phosphorylation, AlphaLisa; read-out: hTREM2 EC50
# Description: In vitro Measurement of Triggering Receptor Expressed on Myeloid Cells 2 activity using cellular phosphorylation of Spleen Tyrosine Kinase (“Syk”) Assays
# Measurement of TREM2 agonist potency was done using a HEK cell line expressing human TREM2 and DAP12 (HEK293T-hTREM2 cells). Binding of small molecules to, and activation of, TREM2 increases the phosphorylation of Syk. The resultant levels of Syk phosphorylation are measured using a commercial AlphaLisa reagent kit. To perform the assay, HEK-hTREM2 cells were plated at 14,000 cells per well in a 384 well plate, in 25 μL of complete growth media and incubated at 37° C., 5% CO2 for 20-24 hours.
# Prior to the assay, test compounds were diluted in the 384 well plates in assay buffer and allowed to equilibrate for 30 minutes. Growth media was removed from cell plates by inversion on blotting paper, and 25 μL of test articles in assay buffer was added to cells. Cells were incubated for 45 minutes at room temperature. After 45 minutes, assay buffer was removed and 10 μL of lysis buffer was added. Plates were shaken for 20 minutes at 350 RPM at room temperature. After complete lysis, AlphaLisa reagents were added to the lysate, and fluourescence intensity was measured using a Perkin Elmer Envision plate reader. Intensities were used to generate a standard curve, and % activation was calculated. Curve fitting was performed using Prism v9 software, log(agonist) vs response—variable slope (four parameters), and EC50s were calculated from the curve fit.
# The results presented in Table B have been generated with the in vitro assay described above. This assay may be used to test any of the compounds described herein to assess and characterize a compound's ability to act as an agonist of TREM2.
# T1 sequence (Q9NZC2 19-230): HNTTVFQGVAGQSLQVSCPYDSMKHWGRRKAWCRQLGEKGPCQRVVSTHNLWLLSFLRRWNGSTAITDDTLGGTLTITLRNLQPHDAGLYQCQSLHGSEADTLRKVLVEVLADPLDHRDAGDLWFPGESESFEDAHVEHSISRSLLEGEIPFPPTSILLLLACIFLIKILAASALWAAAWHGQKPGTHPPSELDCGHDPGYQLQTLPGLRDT
# T1 sequence (O43914 22-113 partner): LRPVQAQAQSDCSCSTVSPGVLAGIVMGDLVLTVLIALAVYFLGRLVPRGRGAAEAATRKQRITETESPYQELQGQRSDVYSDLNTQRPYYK
row,pEC50,Compound
1,> 7.00,"Cc1noc(-c2cc3c(-c4ccc(F)cc4F)nc([C@H]4CCO[C@@H](c5cnn(C6CC6)c5)C4)nc3nc2C)n1 (racemic) [Example 19, 5-[4-(2,4-difluorophenyl)-7-methyl-2-[rac-(2R,4S)-2-(1-cyclopropylpyrazol-4-yl)-tetrahydropyran-4-yl]pyrido[2,3-d]pyrimidin-6-yl]-3-methyl-1,2,4-oxadiazole]"
2,6.30 to 7.00,"Cc1nc2nc(N3C[C@@H](C)O[C@@H](c4cnn(C5CC5)c4)C3)nc(C34CC(C(F)(F)F)(C3)C4)c2cc1C(F)(F)Cl (racemic) [Example 90, (2S,6R)-4-(6-(chloro-difluoromethyl)-7-methyl-4-(3-(trifluoromethyl)-bicyclo[1.1.1]pentan-1-yl)pyrido[2,3-d]pyrimidin-2-yl)-2-(1-cyclopropyl-1H-pyrazol-4-yl)-6-methylmorpholine]"
3,> 7.00,"Cc1nc2nc([C@H]3CCO[C@@H](c4cn(C)c(=O)s4)C3)nc(C34CC(C(F)(F)F)(C3)C4)c2nc1C (racemic) [Example 106, 3-methyl-5-[rac-(2R,4S)-4-[6,7-dimethyl-4-[3-(trifluoromethyl)-1-bicyclo[1.1.1]pentanyl]-pteridin-2-yl]tetrahydropyran-2-yl]thiazol-2-one]"
4,6.30 to 7.00,"Cc1nc2nc(C3CCOC(c4cnnc(N(C)C)c4)C3)nc(C34CC(C(F)(F)F)(C3)C4)c2nc1C (racemic) [Example 130, N,N-dimethyl-5-[rac-trans-4-[6,7-dimethyl-4-[3-(trifluoromethyl)-1-bicyclo[1.1.1]pentanyl]pteridin-2-yl]tetrahydropyran-2-yl]pyridazin-3-amine]"

# The remaining lines, values behind:
row,Compound,pEC50
1,"Cc1nc2nc([C@H]3CCO[C@@H](c4cn(C)c(=O)s4)C3)nc(C34CC(C(F)(F)F)(C3)C4)c2cc1C#N (racemic) [Example 81, 7-methyl-2-[rac-(2R,4S)-2-(3-methyl-2-oxo-thiazol-5-yl)tetrahydropyran-4-yl]-4-[3-(trifluoromethyl)-1-bicyclo[1.1.1]pentanyl]pyrido[2,3-d]pyrimidine-6-carbonitrile]",> 7.00
2,"COc1ncc([C@H]2C[C@@H](c3nc(C45CC(C(F)(F)F)(C4)C5)c4nc(C)c(C)nc4n3)CCO2)s1 (racemic) [Example 117, 2-methoxy-5-[rac-(2R,4S)-4-[6,7-dimethyl-4-[3-(trifluoromethyl)-1-bicyclo[1.1.1]pentanyl]pteridin-2-yl]tetrahydropyran-2-yl]thiazole]",> 7.00
3,"Cc1nc2nc([C@H]3CCO[C@@H](c4ccnc(N(C)C)c4)C3)nc(C34CC(C(F)(F)F)(C3)C4)c2nc1C (racemic) [Example 124, N,N-dimethyl-4-[rac-4-[6,7-dimethyl-4-[3-(trifluoromethyl)-1-bicyclo[1.1.1]pentanyl]pteridin-2-yl]tetrahydropyran-2-yl]pyridin-2-amine]",> 7.00
4,"Cc1nc2nc([C@@H]3CCO[C@@H](c4ccnc(N(C)C)c4)C3)nc(C34CC(C(F)(F)F)(C3)C4)c2nc1C (racemic) [Example 125, N,N-dimethyl-4-[rac-4-[6,7-dimethyl-4-[3-(trifluoromethyl)-1-bicyclo[1.1.1]pentanyl]pteridin-2-yl]tetrahydropyran-2-yl]pyridin-2-amine]",6.30 to 7.00
5,"Cc1nc2nc(C3CCOC(c4cnnc(N(C)C)c4)C3)nc(C34CC(C(F)(F)F)(C3)C4)c2nc1C (racemic) [Example 129, N,N-dimethyl-5-[rac-cis-4-[6,7-dimethyl-4-[3-(trifluoromethyl)-1-bicyclo[1.1.1]pentanyl]pteridin-2-yl]tetrahydropyran-2-yl]pyridazin-3-amine]",> 7.00
6,"Cc1nc2nc(N3C[C@@H](C)O[C@@H](c4ccnc(N(C)C)c4)C3)nc(C34CC(C(F)(F)F)(C3)C4)c2nc1C (racemic) [Example 142, N,N-dimethyl-4-[rac-(2S,6R)-4-[6,7-dimethyl-4-[3-(trifluoromethyl)-1-bicyclo[1.1.1]pentanyl]pteridin-2-yl]-6-methyl-morpholin-2-yl]pyridin-2-amine]",6.30 to 7.00
